Source: patent US9352015B2, “Antimicrobial peptides” (priority 2009, dated 2016)

Assay: RP-HPLC temperature profiling (peptide self-association parameter PA)
Format: physicochemical
Conditions: enantiomer pairs of V681 analogs, 5° C. to 80° C., relative to peptide C
In short: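 Peptide retention was profiled by RP-HPLC at pH 2 from 5 °C to 80 °C in 3 °C increments, using a linear gradient of 0.5% acetonitrile/min. The monomeric random-coil control peptide C profile was subtracted. PA is the maximum change in retention time relative to control C; higher PA means greater self-association.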

CC[C@@H](C)[C@@H](NC(=O)[C@@H](C)NC(=O)[C@@H](CCCCN)NC(=O)[C@@H](CC(C)C)NC(=O)[C@@H](C)NC(=O)[C@H](NC(=O)[C@@H](Cc1c[nH]cn1)NC(=O)[C@@H](CC(C)C)NC(=O)[C@H](NC(=O)[C@H](NC(=O)[C@@H](CCCCN)NC(=O)[C@@H](CCCCN)NC(=O)[C@@H](C)NC(=O)[C@@H](CO)NC(=O)[C@@H](CCCCN)NC(=O)[C@@H](Cc1ccccc1)NC(=O)[C@H](NC(=O)[C@@H](CCCCN)NC(=O)[C@@H](CC(C)C)NC(=O)[C@@H](Cc1ccccc1)NC(=O)[C@@H](CO)NC(=O)[C@@H](CCCCN)NC(=O)[C@@H](Cc1c[nH]c2ccccc12)NC(=O)[C@@H](CCCCN)NC(C)=O)[C@H](C)O)[C@H](C)O)C(C)C)[C@H](C)O)C(=O)N[C@H](CO)C(=O)N[C@H](CO)C(N)=O [Peptide D1, Ac-KWKSFLKTFKSAKKTVLHTALKAISS-amide]
PA (peptide self-association parameter): 2.1
